# Source: paper PMC6540285, “Evaluation of Protein Kinase Inhibitors with PLK4 Cross-Over Potential in a Pre-Clinical Model of Cancer” (International Journal of Molecular Sciences, 2019)
# What was measured:
# [1] = target: MUSK (Homo sapiens, UniProt O15146); test: SelectScreen kinase profiling, ZLYTE; format: biochemical
# [2] = target: FGFR3 K650E (Homo sapiens, UniProt P22607, K650E); test: SelectScreen kinase profiling, ZLYTE; format: biochemical
# [3] = target: CDK9/cyclin K (Homo sapiens, UniProt P50750); test: SelectScreen kinase profiling, LanthaScreen binding
# [4] = target: MARK4 (Homo sapiens, UniProt Q96L34); test: SelectScreen kinase profiling, ZLYTE; format: biochemical; conditions: MARK4, 10 µM
# [5] = target: KIT T670E (Homo sapiens, UniProt P10721, T670E); test: SelectScreen kinase profiling, LanthaScreen binding
# [6] = target: CHEK1 (CHK1) (Homo sapiens, UniProt O14757); test: SelectScreen kinase profiling, ZLYTE; format: biochemical
# [7] = target: RIPK3 (Homo sapiens, UniProt Q9Y572); test: SelectScreen kinase profiling, LanthaScreen binding; conditions: RIPK3, 10 µM
# [8] = target: JAK2 (Homo sapiens, UniProt O60674); test: SelectScreen kinase profiling, ZLYTE; format: biochemical; conditions: JAK2, 10 µM
# [9] = target: PDGFRA (PDGFR alpha) (Homo sapiens, UniProt P16234); test: SelectScreen kinase profiling, ZLYTE; format: biochemical
# [10] = test system: MON cells; test: cells; conditions: read-out: MTT: IC50 of the proliferation assay
# [11] = target: PRKG1 (Homo sapiens, UniProt Q13976); test: SelectScreen kinase profiling, ZLYTE; format: biochemical; conditions: PRKG1, 10 µM
# PRKG1, sequence (Q13976 whole entry): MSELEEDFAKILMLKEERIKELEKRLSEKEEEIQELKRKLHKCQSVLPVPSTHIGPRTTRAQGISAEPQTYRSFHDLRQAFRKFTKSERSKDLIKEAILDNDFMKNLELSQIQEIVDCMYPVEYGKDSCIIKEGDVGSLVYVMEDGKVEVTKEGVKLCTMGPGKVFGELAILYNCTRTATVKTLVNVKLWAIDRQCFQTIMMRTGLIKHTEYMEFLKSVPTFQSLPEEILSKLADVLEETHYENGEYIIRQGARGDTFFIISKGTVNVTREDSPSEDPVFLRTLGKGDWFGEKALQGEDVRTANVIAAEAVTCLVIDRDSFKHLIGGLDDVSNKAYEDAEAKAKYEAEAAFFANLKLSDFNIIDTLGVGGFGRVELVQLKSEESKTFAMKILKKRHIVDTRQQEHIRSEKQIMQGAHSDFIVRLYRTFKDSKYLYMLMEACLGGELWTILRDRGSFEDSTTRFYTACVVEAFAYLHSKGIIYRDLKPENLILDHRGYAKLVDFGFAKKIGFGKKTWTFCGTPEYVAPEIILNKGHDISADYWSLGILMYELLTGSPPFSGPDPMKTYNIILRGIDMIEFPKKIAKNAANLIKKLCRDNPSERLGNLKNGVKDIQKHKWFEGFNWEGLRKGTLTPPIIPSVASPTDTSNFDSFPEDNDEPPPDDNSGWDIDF
# [12] = target: STK17A (DRAK1) (Homo sapiens, UniProt Q9UEE5); test: SelectScreen kinase profiling, LanthaScreen binding
# [13] = target: CSK (Homo sapiens, UniProt P41240); test: SelectScreen kinase profiling, ZLYTE; format: biochemical
# CSK, sequence (P41240 whole entry): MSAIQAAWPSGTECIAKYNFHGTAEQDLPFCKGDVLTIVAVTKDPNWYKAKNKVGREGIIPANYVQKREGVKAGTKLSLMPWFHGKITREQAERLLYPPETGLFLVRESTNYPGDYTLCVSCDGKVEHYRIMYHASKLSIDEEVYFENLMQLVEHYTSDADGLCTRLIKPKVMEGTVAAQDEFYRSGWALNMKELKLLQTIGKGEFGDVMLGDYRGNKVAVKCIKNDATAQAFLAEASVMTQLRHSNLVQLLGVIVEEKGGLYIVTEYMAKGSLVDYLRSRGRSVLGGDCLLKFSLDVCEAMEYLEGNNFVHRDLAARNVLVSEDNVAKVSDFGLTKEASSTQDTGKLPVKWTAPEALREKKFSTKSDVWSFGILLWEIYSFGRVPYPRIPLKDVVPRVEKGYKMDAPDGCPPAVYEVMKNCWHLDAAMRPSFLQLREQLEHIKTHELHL
# [14] = target: BRSK2 (Homo sapiens, UniProt Q8IWQ3); test: SelectScreen kinase profiling, LanthaScreen binding; conditions: BRSK2, 10 µM
# [15] = target: ROS1 (Homo sapiens, UniProt P08922); test: SelectScreen kinase profiling, ZLYTE; format: biochemical; conditions: ROS1, 10 µM
# [16] = target: AURKB (Aurora B) (Homo sapiens, UniProt Q96GD4); test: SelectScreen kinase profiling, ZLYTE; format: biochemical
# [17] = target: IRAK3 (Homo sapiens, UniProt Q9Y616); test: SelectScreen kinase profiling, LanthaScreen binding; conditions: IRAK3, 10 µM
# IRAK3, sequence (Q9Y616 whole entry): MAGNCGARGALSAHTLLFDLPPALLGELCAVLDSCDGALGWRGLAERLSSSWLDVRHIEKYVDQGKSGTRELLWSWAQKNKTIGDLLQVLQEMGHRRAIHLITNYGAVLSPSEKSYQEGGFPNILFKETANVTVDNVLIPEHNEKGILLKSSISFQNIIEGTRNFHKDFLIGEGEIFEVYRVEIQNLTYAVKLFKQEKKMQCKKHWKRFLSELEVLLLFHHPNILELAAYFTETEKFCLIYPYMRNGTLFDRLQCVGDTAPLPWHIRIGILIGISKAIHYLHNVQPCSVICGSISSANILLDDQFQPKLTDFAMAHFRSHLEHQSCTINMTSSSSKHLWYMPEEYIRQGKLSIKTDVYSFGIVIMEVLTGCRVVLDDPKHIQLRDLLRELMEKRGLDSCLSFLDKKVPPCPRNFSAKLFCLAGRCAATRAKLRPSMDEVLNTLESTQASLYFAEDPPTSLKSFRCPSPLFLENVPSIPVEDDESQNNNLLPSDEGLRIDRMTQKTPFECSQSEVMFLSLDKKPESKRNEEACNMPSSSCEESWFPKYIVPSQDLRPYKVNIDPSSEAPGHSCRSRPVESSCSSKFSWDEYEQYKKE
# [18] = target: LCK (Homo sapiens, UniProt P06239); test: SelectScreen kinase profiling, ZLYTE; format: biochemical
# [19] = target: PAK4 (Homo sapiens, UniProt O96013); test: SelectScreen kinase profiling, ZLYTE; format: biochemical; conditions: PAK4, 10 µM
# [20] = target: IKBKB (IKK beta) (Homo sapiens, UniProt O14920); test: SelectScreen kinase profiling, ZLYTE; format: biochemical
# [21] = target: PHKG2 (Homo sapiens, UniProt P15735); test: SelectScreen kinase profiling, ZLYTE; format: biochemical; conditions: PHKG2, 10 µM
# [22] = target: KIT (Homo sapiens, UniProt P10721); test: SelectScreen kinase profiling, ZLYTE; format: biochemical
# [23] = target: CYP2D6 (Homo sapiens, UniProt P10635)
# [24] = target: PRKD1 (PKC mu) (Homo sapiens, UniProt Q15139); test: SelectScreen kinase profiling, ZLYTE; format: biochemical
# [25] = target: ZAP70 (Homo sapiens, UniProt P43403); test: SelectScreen kinase profiling, ZLYTE; format: biochemical; conditions: ZAP70, 10 µM
# Source text: (§1) Kinase Technology % Inhibition Avg Kinase Technology % Inhibition Avg […]
# TESK1 LanthaScreen 37 ZAP70 ZLYTE 24
# cleavage (Thermo Fisher Scientific, USA)
# [26] = target: RIPK2 (Homo sapiens, UniProt O43353); test: SelectScreen kinase profiling, LanthaScreen binding; conditions: RIPK2, 10 µM
# RIPK2, sequence (O43353 whole entry): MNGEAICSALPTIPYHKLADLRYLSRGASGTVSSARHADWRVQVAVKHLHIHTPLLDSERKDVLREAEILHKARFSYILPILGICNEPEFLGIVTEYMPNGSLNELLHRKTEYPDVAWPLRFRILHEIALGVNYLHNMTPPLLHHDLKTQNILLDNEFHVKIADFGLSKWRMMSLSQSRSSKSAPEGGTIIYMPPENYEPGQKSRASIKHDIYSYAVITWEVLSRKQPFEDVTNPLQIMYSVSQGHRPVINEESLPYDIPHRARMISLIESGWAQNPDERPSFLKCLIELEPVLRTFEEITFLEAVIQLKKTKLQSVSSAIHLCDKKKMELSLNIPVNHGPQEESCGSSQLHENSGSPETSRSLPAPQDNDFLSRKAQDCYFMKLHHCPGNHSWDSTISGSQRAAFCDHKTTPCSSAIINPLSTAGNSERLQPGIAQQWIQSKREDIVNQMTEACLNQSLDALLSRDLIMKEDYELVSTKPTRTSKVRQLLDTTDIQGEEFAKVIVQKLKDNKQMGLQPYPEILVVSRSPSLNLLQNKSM
# [27] = target: DDR1 (Homo sapiens, UniProt Q08345); test: as above; conditions: DDR1, 10 µM
# [28] = target: MAPK15 (ERK7) (Homo sapiens, UniProt Q8TD08); test: as above
# [29] = target: HUNK (Homo sapiens, UniProt P57058); test: as above
# [30] = target: TEK (TIE2) R849W (Homo sapiens, UniProt Q02763, R849W); test: as above
# Source text: as §1
# [31] = target: STK32C (YANK3) (Homo sapiens, UniProt Q86UX6); test: as above
# Source text: as §1
# [32] = target: VRK2 (Homo sapiens, UniProt Q86Y07); test: as above; conditions: VRK2, 10 µM
# VRK2, sequence (Q86Y07 whole entry): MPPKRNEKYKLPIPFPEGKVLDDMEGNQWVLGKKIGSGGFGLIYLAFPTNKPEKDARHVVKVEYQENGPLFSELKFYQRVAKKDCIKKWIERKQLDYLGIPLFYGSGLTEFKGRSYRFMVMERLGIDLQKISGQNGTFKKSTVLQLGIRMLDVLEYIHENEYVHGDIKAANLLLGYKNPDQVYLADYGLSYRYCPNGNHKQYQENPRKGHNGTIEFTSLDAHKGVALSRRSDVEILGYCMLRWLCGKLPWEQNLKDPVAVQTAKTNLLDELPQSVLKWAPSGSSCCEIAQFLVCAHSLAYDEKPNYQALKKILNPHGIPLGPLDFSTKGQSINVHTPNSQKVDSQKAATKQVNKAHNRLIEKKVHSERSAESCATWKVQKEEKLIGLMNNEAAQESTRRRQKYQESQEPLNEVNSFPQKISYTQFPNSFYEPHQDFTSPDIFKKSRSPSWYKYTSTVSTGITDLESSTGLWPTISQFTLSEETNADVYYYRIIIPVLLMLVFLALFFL
# Source text: as §1
# [33] = target: TNK2 (ACK) (Homo sapiens, UniProt Q07912); test: as above
# TNK2 (ACK), sequence (Q07912 whole entry): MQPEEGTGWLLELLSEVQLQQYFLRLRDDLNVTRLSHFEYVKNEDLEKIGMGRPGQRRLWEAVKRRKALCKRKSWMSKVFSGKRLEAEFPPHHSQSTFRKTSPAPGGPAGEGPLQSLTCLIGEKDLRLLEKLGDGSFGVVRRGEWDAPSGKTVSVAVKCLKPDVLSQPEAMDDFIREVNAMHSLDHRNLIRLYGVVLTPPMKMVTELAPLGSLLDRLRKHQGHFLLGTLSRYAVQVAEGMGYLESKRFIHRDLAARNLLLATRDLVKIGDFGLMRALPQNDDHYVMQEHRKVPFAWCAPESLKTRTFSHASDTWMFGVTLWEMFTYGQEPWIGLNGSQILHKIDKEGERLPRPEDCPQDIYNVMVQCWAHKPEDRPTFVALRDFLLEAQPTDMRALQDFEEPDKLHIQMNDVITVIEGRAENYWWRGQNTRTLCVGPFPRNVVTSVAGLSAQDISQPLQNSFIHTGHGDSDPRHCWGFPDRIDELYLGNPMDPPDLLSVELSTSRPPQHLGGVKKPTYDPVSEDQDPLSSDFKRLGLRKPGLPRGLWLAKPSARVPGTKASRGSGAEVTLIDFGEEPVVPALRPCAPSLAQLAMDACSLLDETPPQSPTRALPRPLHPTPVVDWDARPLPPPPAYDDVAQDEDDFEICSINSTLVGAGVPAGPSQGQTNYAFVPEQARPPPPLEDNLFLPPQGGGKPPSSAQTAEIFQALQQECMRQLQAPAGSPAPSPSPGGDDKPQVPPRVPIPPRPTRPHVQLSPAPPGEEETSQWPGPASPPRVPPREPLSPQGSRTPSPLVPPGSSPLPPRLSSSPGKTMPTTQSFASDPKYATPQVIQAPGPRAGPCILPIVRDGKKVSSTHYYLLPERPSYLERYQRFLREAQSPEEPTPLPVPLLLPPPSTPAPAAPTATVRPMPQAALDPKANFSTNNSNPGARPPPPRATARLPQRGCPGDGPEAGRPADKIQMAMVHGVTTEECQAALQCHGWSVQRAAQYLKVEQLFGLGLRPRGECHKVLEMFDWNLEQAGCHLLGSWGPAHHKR
# Source text: as §1
# [34] = target: WNK3 (Homo sapiens, UniProt Q9BYP7); test: as above; conditions: WNK3, 10 µM
# Source text: as §1
# [35] = target: STK39 (STLK3) (Homo sapiens, UniProt Q9UEW8); test: as above
# Source text: as §1
# [36] = target: TTK (Homo sapiens, UniProt P33981); test: as above
# Source text: as §1
# [37] = target: STK38L (NDR2) (Homo sapiens, UniProt Q9Y2H1); test: as above
# STK38L (NDR2), sequence (Q9Y2H1 whole entry): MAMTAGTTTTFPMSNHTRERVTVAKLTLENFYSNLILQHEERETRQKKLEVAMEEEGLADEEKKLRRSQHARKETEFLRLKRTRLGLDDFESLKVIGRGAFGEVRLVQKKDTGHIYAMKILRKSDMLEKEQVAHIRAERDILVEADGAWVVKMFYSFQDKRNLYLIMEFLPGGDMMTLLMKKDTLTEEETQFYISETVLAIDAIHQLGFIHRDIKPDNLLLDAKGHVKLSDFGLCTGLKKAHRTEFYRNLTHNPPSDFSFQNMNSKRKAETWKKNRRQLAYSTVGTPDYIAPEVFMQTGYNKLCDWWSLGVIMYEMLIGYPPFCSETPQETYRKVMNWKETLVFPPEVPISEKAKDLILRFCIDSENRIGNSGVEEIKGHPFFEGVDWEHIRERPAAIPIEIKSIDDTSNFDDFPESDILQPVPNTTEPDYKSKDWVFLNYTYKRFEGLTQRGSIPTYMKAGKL
# Source text: as §1
# [38] = target: STK33 (Homo sapiens, UniProt Q9BYT3); test: as above; conditions: STK33, 10 µM
# Source text: as §1
# [39] = target: TGFBR2 (Homo sapiens, UniProt P37173); test: as above; conditions: TGFBR2, 10 µM
# Source text: as §1
# [40] = target: PLK1 (Homo sapiens, UniProt P53350); test: SelectScreen kinase profiling, ZLYTE; format: biochemical; conditions: PLK1, 10 µM
# FGFR3 K650E, sequence (P22607 23-806 K650E): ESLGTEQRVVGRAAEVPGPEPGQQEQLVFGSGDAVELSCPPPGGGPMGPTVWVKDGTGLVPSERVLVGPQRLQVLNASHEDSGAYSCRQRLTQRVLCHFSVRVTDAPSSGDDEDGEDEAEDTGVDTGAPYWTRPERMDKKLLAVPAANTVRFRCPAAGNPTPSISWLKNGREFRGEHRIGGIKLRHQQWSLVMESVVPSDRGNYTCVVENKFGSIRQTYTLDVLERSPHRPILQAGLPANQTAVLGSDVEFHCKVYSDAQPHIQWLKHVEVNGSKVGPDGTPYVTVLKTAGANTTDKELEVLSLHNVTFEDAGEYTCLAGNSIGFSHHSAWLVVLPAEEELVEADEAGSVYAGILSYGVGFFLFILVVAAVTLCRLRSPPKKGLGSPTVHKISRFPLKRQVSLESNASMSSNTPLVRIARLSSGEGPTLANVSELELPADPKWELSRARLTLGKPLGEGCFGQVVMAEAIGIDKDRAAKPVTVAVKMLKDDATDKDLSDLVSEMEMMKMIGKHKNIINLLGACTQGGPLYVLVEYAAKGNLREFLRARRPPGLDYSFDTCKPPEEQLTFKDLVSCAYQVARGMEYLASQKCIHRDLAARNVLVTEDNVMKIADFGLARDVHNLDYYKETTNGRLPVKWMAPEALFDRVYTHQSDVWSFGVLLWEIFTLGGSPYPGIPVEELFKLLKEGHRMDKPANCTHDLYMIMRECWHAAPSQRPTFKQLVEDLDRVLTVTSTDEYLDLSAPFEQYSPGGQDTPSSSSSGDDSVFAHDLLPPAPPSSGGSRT
smiles,measurement,setting,value
O=C(c1ccc(/C=C/c2n[nH]c3ccccc23)cc1)N1CCNCC1 [KW-2449],inhibition at 10 µM,[1],90%
same,inhibition at 10 µM,[2],97%
same,inhibition at 10 µM,[3],38%
same,inhibition at 10 µM,[4],101%
same,inhibition at 10 µM,[5],89%
same,inhibition at 10 µM,[6],99%
same,inhibition at 10 µM,[7],18%
same,inhibition at 10 µM,[8],98%
same,inhibition at 10 µM,[9],91%
same,IC50,[10],2450 nM
same,inhibition at 10 µM,[11],77%
same,inhibition at 10 µM,[12],85%
same,inhibition at 10 µM,[13],71%
same,inhibition at 10 µM,[14],7%
same,inhibition at 10 µM,[15],98%
same,inhibition at 10 µM,[16],102%
same,inhibition at 10 µM,[17],31%
same,inhibition at 10 µM,[18],97%
same,inhibition at 10 µM,[19],94%
same,inhibition at 10 µM,[20],66%
same,inhibition at 10 µM,[21],99%
same,inhibition at 10 µM,[22],91%
same,IC50,[23],> 10000 nM
same,inhibition at 10 µM,[24],97%
same,inhibition at 10 µM,[25],24%
same,inhibition at 10 µM,[26],77%
same,inhibition at 10 µM,[27],55%
same,inhibition at 10 µM,[28],-49%
same,inhibition at 10 µM,[29],84%
same,inhibition at 10 µM,[30],-5%
same,inhibition at 10 µM,[31],62%
same,inhibition at 10 µM,[32],32%
same,inhibition at 10 µM,[33],71%
same,inhibition at 10 µM,[34],7%
same,inhibition at 10 µM,[35],38%
same,inhibition at 10 µM,[36],54%
same,inhibition at 10 µM,[37],59%
same,inhibition at 10 µM,[38],81%
same,inhibition at 10 µM,[39],77%
same,inhibition at 10 µM,[40],16%
